Measured values taken from ChEMBL document CHEMBL3400049, “Design strategies to address kinetics of drug binding and residence time” (Bioorg Med Chem Lett, 2015).

What was measured:
[1] = biological target: Histone-lysine N-methyltransferase EZH2 (Homo sapiens) (UniProt Q15910); assay: Binding affinity to EZH2 (unknown origin) assessed as residence time
[2] = biological target: T1, Fatty-acid amide hydrolase 1 (Homo sapiens) (UniProt O00519); assay: Inhibition of recombinant human FAAH assessed as dissociation half life
T1 sequence (whole entry): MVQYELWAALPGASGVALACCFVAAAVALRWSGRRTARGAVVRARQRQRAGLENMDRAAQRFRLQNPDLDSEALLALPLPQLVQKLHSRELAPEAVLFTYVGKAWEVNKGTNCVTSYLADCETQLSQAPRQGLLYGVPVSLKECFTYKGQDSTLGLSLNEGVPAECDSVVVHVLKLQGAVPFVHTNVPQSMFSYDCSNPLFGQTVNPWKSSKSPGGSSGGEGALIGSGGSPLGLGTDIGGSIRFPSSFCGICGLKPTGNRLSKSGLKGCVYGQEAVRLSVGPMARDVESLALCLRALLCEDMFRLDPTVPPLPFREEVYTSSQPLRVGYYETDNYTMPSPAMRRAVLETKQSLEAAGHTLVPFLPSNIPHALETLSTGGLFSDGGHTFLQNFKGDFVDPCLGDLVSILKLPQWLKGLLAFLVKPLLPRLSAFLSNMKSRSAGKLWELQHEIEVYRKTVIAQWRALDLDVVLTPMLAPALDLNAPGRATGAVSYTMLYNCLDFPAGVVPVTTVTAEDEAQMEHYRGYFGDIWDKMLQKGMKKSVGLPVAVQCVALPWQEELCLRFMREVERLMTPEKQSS

[3] = biological target: CDK8/Cyclin C (Homo sapiens) (UniProt P49336+P24863); assay: Binding affinity to CDK8/CycC (unknown origin) assessed as residence time; format: protein-complex assay

Chain of Histone-lysine N-methyltransferase EZH2 (Homo sapiens) (Q15910 whole entry, looked up): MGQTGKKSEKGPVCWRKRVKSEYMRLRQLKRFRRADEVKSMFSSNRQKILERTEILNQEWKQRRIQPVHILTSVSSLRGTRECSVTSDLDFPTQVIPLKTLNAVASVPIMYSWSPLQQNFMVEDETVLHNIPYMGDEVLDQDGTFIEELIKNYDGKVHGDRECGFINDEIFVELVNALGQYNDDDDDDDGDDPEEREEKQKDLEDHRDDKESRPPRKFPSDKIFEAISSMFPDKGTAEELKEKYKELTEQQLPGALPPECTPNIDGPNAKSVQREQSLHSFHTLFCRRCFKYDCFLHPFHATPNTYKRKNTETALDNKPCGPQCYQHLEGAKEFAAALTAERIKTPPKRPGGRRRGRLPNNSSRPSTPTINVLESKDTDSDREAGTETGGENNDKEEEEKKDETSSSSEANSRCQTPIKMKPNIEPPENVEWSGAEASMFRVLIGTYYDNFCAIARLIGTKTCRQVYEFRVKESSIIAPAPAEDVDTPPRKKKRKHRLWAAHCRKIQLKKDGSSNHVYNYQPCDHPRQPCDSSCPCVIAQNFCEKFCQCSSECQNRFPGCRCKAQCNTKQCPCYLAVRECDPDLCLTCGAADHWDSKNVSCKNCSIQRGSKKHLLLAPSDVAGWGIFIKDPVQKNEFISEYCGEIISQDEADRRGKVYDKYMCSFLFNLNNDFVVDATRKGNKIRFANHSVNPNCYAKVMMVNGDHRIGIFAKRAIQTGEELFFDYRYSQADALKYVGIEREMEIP

TIME [1] | T1/2 [2] | TIME [3] | Structure (SMILES)
1.03 h |  |  | Cc1ccc(CNC(=O)c2cc(-c3ccnc(N4CCN(C)CC4)c3)cc3c2ccn3C(C)C)c(=O)[nH]1
 | > 10 h |  | O=C(CCCCCCc1ccccc1)c1nc2ncccc2o1
0.717 h |  |  | CCCc1cc(C)[nH]c(=O)c1CNC(=O)c1cc(-c2ccnc(N3CCN(C)CC3)c2)cc2c1ccn2C(C)C
 |  | < 0.0233 h | Cc1ccc(-n2nc(C(C)(C)C)cc2NC(=O)NCCN2CCOCC2)cc1
 | > 10 h |  | O=C(CCCCCCc1ccccc1)c1ncc(-c2ccccn2)o1
 |  | 27.1 h | Cc1ccc(-n2nc(C(C)(C)C)cc2NC(=O)NCCN2CCN(C(=O)Nc3cc(C(C)(C)C)nn3-c3ccc(C)cc3)CC2)cc1
